Read-outs that look alike come from different tables or passages of the source. Starred links: 1 amine or outer side, 2 acyl side, 3 side chain; linkers in the order of their positions; H or OH if unused. Positions of bridges follow the written chain, without caps; N, C: chain ends. Non-standard residues stand in square brackets, D forms with d. Residues, ends and D or L forms follow the SMILES beside them. ξ: configuration not given here. *: point of attachment. X33 = CC(=O)N[C@@H](CC(=O)Nc1cccc(C[C@H](N[*:1])C(=O)[*:2])c1)C(=O)O; X10 = NS(=O)(=O)c1cc(C(=O)Nc2cccc(C[C@H](N[*:1])C(=O)[*:2])c2)cs1; X30 = Cn1ncc(C(=O)Nc2cccc(C[C@H](N[*:1])C(=O)[*:2])c2)c1C#N; DOTA = O=C(O)CN1CCN(CC(=O)O)CCN(CC(=O)*)CCN(CC(=O)O)CC1; Phe(3-CF3) = N[C@@H](Cc1cccc(C(F)(F)F)c1)C(=O)O; ξTrp(7-Me) = Cc1cccc2c(CC(N)C(=O)O)c[nH]c12; Propanoyl(3-SO2NH2) = NS(=O)(=O)CCC(=O)*; Phe(4-NH2) = Nc1ccc(C[C@H](N)C(=O)O)cc1; mXylylene = c1cc(C[*:1])cc(C[*:2])c1; X2 = O=C(CN1CCC(N[*:1])CC1)[*:2]; X1 = O=C(CN1CCN([*:1])CC1)[*:2]; X39 = NS(=O)(=O)c1ccc(N*)cc1; X41 = NS(=O)(=O)c1cccc(N*)c1; Dap = NC[C@H](N)C(=O)O; Sar = CNCC(=O)O
How the values were obtained:
[1] = molecular target: T1, CAIX-expressing human HT-29 colorectal cancer cells (Homo sapiens, UniProt Q16790); test: FACS binding assay (IC50 determination, competition with tracer 3BP-2776 or 3BP-4149); conditions: 4° C., 1 hour, read-out: pIC50 category (activity) (converted)
T1 construct: CAIX-expressing human HT-29 colorectal cancer cells; host or cells: HT-29 human colorectal cancer cells
Summary of the method: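 HT-29 cells in FACS buffer (PBS, 1% FCS) at 500.000 cells/ml were exposed to compounds competing with a labelled tracer, with biotinylated compounds detected by 1 μg/mL APC-streptavidin for 30 min on ice. APC/Cy5 median fluorescence was read by flow cytometry and IC50 derived by 4PL fit.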

[2] = molecular target: T2, human carbonic anhydrase IX (hCAIX-Fc) (Homo sapiens, UniProt Q16790); test: Surface plasmon resonance assay with hCAIX-Fc; format: binding; conditions: 25° C.; for t1/2 category (activity): SPR dissociation half-life, hCAIX-Fc; for Kd: SPR, hCAIX-Fc captured, read-out: pKD category (activity) (converted)
T2 construct: purchased SinoBliological (Sino Biological) 10107-H02H

[3] = FACS competition on HT-29 cells, Tracer ID 3BP-2776 (10 nM, biotin-labeled)
[4] = FACS binding assay, HT-29 cells, competition with tracer 3BP-2776 (10 nM, biotin-labeled)
[5] = FACS binding assay, HT-29 cells, competition with tracer 3BP-4149 (3 nM, Cy5-labeled)

CC(=O)N[C@H](C(=O)N[C@@H](Cc1ccc(O)cc1)C(=O)N[C@H]1CSCc2cccc(c2)CSC[C@@H](C(N)=O)NC(=O)[C@H](C)NC(=O)[C@H](Cc2c[nH]c3ccccc23)NC(=O)[C@H]([C@@H](C)O)NC(=O)[C@H](CC(C)C)NC(=O)[C@H](Cc2c[nH]c3ccccc23)NC(=O)[C@H](CC(=O)O)NC(=O)CN(C)C(=O)[C@H](CCC(=O)O)NC1=O)C(C)C [3BP-3313] (Ac-VYCE[Sar]DWLTWAC-NH2; linker 3-12 via mXylylene)
IC50 [1, 3]: < 0.01 µM | t1/2 category (activity) [2]: C (t1/2 between 2.1 and 5.0 minutes) | Kd [2]: < 0.01 µM

CC(C)C[C@@H]1NC(=O)[C@H](Cc2cccc(NC(=O)c3cc(S(N)(=O)=O)co3)c2)NC(=O)[C@H](CC(=O)O)NC(=O)[C@H]2CCCN2C(=O)[C@H](CCC(=O)O)NC(=O)[C@@H](NC(=O)[C@H](CCC(N)=O)NC(=O)CN2CCN(C(=O)CN3CCN(CC(=O)O)CCN(CC(=O)O)CCN(CC(=O)O)CC3)CC2)CSCc2cccc(c2)CSC[C@@H](C(N)=O)NC(=O)[C@H](CO)NC(=O)[C@H](Cc2c[nH]c3ccccc23)NC(=O)[C@H]([C@@H](C)O)NC1=O [3BP-4788]
IC50 [1, 4]: < 0.01 µM | t1/2 category (activity) [2]: A (t1/2>15.0 minutes) | Kd [2]: < 0.01 µM

CC(C)C[C@@H]1NC(=O)[C@H](Cc2ccc(NC(=O)CCS(N)(=O)=O)cc2)NC(=O)[C@H](CC(=O)O)NC(=O)[C@H]2CCCN2C(=O)[C@H](CCC(=O)O)NC(=O)[C@@H]2CSCc3cccc(c3)CSC[C@@H](C(N)=O)NC(=O)[C@H](CNC(=O)C[C@H](NC(=O)CN3CCN(C(=O)CN4CCN(CC(=O)O)CCN(CC(=O)O)CCN(CC(=O)O)CC4)CC3)C(=O)N2)NC(=O)[C@H](Cc2c[nH]c3ccccc23)NC(=O)[C@H]([C@@H](C)O)NC1=O [3BP-4498] ({DOTA}-[X1]DCE[dP]D[Phe(4-NH2)](Propanoyl(3-SO2NH2))LTW[Dap]C-NH2; lactam 2-11; linker 3-12 via mXylylene)
IC50 [1, 5]: 0.01 to 0.0794 µM | t1/2 category (activity) [2]: A (t1/2>15.0 minutes) | Kd [2]: < 0.01 µM

CC(C)C[C@@H]1NC(=O)[C@H](Cc2cccc(NC(=O)c3csc(S(N)(=O)=O)c3)c2)NC(=O)[C@H](CC(=O)O)NC(=O)[C@H]2CCCN2C(=O)[C@H](CCC(=O)O)NC(=O)[C@@H](NC(=O)[C@H](Cc2ccc(O)cc2)NC(=O)[C@@H](NC(=O)CN2CCC(NC(=O)CN3CCN(CC(=O)O)CCN(CC(=O)O)CCN(CC(=O)O)CC3)CC2)C(C)C)CSCc2cccc(c2)CSC[C@@H](C(N)=O)NC(=O)[C@H](CO)NC(=O)[C@H](Cc2c[nH]c3ccccc23)NC(=O)[C@H]([C@@H](C)O)NC1=O [3BP-4412] ({DOTA}-[X2]VYCE[dP]D[X10]LTWSC-NH2; linker 4-13 via mXylylene)
IC50 [1, 5]: < 0.01 µM | t1/2 category (activity) [2]: A (t1/2>15.0 minutes) | Kd [2]: < 0.01 µM

CC(=O)N[C@@H](CC(=O)Nc1cccc(C[C@@H]2NC(=O)[C@H](CC(=O)O)NC(=O)[C@H]3CCCN3C(=O)[C@H](CCC(=O)O)NC(=O)[C@@H](NC(=O)[C@H](Cc3ccc(O)cc3)NC(=O)[C@@H](NC(=O)CN3CCC(NC(=O)CN4CCN(CC(=O)O)CCN(CC(=O)O)CCN(CC(=O)O)CC4)CC3)C(C)C)CSCc3cccc(c3)CSC[C@@H](C(N)=O)NC(=O)[C@H](CO)NC(=O)[C@H](Cc3c[nH]c4ccccc34)NC(=O)[C@H]([C@@H](C)O)NC(=O)[C@H](CC(C)C)NC2=O)c1)C(=O)O [3BP-4363] ({DOTA}-[X2]VYCE[dP]D[X33]LTWSC-NH2; linker 4-13 via mXylylene)
IC50 [1, 5]: 0.01 to 0.0794 µM | t1/2 category (activity) [2]: B (t1/2 between 5.1 and 15.0 minutes) | Kd [2]: < 0.01 µM

CC(=O)N[C@H](C(=O)N[C@@H](Cc1ccc(O)cc1)C(=O)N[C@H]1CSCc2cccc(c2)CSC[C@@H](C(N)=O)NC(=O)[C@H](CO)NC(=O)[C@H](Cc2c[nH]c3ccccc23)NC(=O)[C@H]([C@@H](C)O)NC(=O)[C@H](CC(C)C)NC(=O)[C@H](Cc2c[nH]c3ccccc23)NC(=O)[C@H](CC(=O)O)NC(=O)[C@H]2CCCN2C(=O)[C@H](CCC(=O)O)NC1=O)C(C)C [3BP-3565] (Ac-VYCE[dP]DWLTWSC-NH2; linker 3-12 via mXylylene)
IC50 [1, 3]: < 0.01 µM | t1/2 category (activity) [2]: A (t1/2>15.0 minutes) | Kd [2]: < 0.01 µM

CC(C)C[C@@H]1NC(=O)[C@H](Cc2ccc(NC(=O)CCS(N)(=O)=O)cc2)NC(=O)[C@H](CC(=O)O)NC(=O)[C@H]2CCCN2C(=O)[C@H](CCC(=O)O)NC(=O)[C@@H](NC(=O)[C@H](CCC(N)=O)NC(=O)CN2CCN(C(=O)CN3CCN(CC(=O)O)CCN(CC(=O)O)CCN(CC(=O)O)CC3)CC2)CSCc2cccc(c2)CSC[C@@H](C(N)=O)NC(=O)[C@H](CO)NC(=O)[C@H](Cc2c[nH]c3ccccc23)NC(=O)[C@H]([C@@H](C)O)NC1=O [3BP-4500] ({DOTA}-[X1]QCE[dP]D[Phe(4-NH2)](Propanoyl(3-SO2NH2))LTWSC-NH2; linker 3-12 via mXylylene)
IC50 [1, 4]: < 0.01 µM | t1/2 category (activity) [2]: A (t1/2>15.0 minutes) | Kd [2]: < 0.01 µM

Cc1cccc2c(CC3NC(=O)[C@H](CC(=O)O)NC(=O)[C@H]4CCCN4C(=O)[C@H](CCC(=O)O)NC(=O)[C@@H](NC(=O)[C@H](Cc4ccc(O)cc4)NC(=O)[C@@H](NC(=O)CN4CCC(NC(=O)CN5CCN(CC(=O)O)CCN(CC(=O)O)CCN(CC(=O)O)CC5)CC4)C(C)C)CSCc4cccc(c4)CSC[C@@H](C(N)=O)NC(=O)[C@H](CO)NC(=O)[C@H](Cc4c[nH]c5ccccc45)NC(=O)[C@H]([C@@H](C)O)NC(=O)[C@H](CC(C)C)NC3=O)c[nH]c12 (stereo partly drawn) [3BP-4158] ({DOTA}-[X2]VYCE[dP]D[ξTrp(7-Me)]LTWSC-NH2; linker 4-13 via mXylylene)
IC50 [1, 4]: < 0.01 µM | t1/2 category (activity) [2]: B (t1/2 between 5.1 and 15.0 minutes) | Kd [2]: < 0.01 µM

CC(C)C[C@@H]1NC(=O)[C@H](Cc2cccc(C(F)(F)F)c2)NC(=O)[C@H](CC(=O)O)NC(=O)[C@H]2CCCN2C(=O)[C@H](CCC(=O)O)NC(=O)[C@@H]2CSCc3cccc(c3)CSC[C@@H](C(N)=O)NC(=O)[C@H](CNC(=O)C[C@H](NC(=O)[C@@H](NC(=O)CN3CCC(NC(=O)CN4CCN(CC(=O)O)CCN(CC(=O)O)CCN(CC(=O)O)CC4)CC3)C(C)C)C(=O)N2)NC(=O)[C@H](Cc2c[nH]c3ccccc23)NC(=O)[C@H]([C@@H](C)O)NC1=O [3BP-4440] ({DOTA}-[X2]VDCE[dP]D[Phe(3-CF3)]LTW[Dap]C-NH2; lactam 3-12; linker 4-13 via mXylylene)
IC50 [1, 5]: < 0.01 µM | t1/2 category (activity) [2]: B (t1/2 between 5.1 and 15.0 minutes) | Kd [2]: < 0.01 µM

CC(C)C[C@@H]1NC(=O)[C@H](Cc2c[nH]c3ccccc23)NC(=O)[C@H](CCC(=O)Nc2cccc(S(N)(=O)=O)c2)NC(=O)[C@H]2CCCN2C(=O)[C@H](CCC(=O)O)NC(=O)[C@@H](NC(=O)[C@H](Cc2ccc(O)cc2)NC(=O)[C@@H](NC(=O)CN2CCC(NC(=O)CN3CCN(CC(=O)O)CCN(CC(=O)O)CCN(CC(=O)O)CC3)CC2)C(C)C)CSCc2cccc(c2)CSC[C@@H](C(N)=O)NC(=O)[C@H](CO)NC(=O)[C@H](Cc2c[nH]c3ccccc23)NC(=O)[C@H]([C@@H](C)O)NC1=O [3BP-4441] ({DOTA}-[X2]VYCE[dP]E(X41)WLTWSC-NH2; linker 4-13 via mXylylene)
IC50 [1, 5]: 0.01 to 0.0794 µM | t1/2 category (activity) [2]: A (t1/2>15.0 minutes) | Kd [2]: < 0.01 µM

CC(C)C[C@@H]1NC(=O)[C@H](Cc2cccc(NC(=O)c3cnn(C)c3C#N)c2)NC(=O)[C@H](CC(=O)O)NC(=O)[C@H]2CCCN2C(=O)[C@H](CCC(=O)O)NC(=O)[C@@H](NC(=O)[C@H](Cc2ccc(O)cc2)NC(=O)[C@@H](NC(=O)CN2CCC(NC(=O)CN3CCN(CC(=O)O)CCN(CC(=O)O)CCN(CC(=O)O)CC3)CC2)C(C)C)CSCc2cccc(c2)CSC[C@@H](C(N)=O)NC(=O)[C@H](CO)NC(=O)[C@H](Cc2c[nH]c3ccccc23)NC(=O)[C@H]([C@@H](C)O)NC1=O [3BP-4305] ({DOTA}-[X2]VYCE[dP]D[X30]LTWSC-NH2; linker 4-13 via mXylylene)
IC50 [1, 5]: 0.01 to 0.0794 µM | t1/2 category (activity) [2]: D (t1/2≤2.0 minutes) | Kd [2]: 0.01 to 0.0794 µM

CC(C)C[C@@H]1NC(=O)[C@H](Cc2c[nH]c3ccccc23)NC(=O)[C@H](CCC(=O)Nc2ccc(S(N)(=O)=O)cc2)NC(=O)[C@H]2CCCN2C(=O)[C@H](CCC(=O)O)NC(=O)[C@@H](NC(=O)[C@H](Cc2ccc(O)cc2)NC(=O)[C@@H](NC(=O)CN2CCC(NC(=O)CN3CCN(CC(=O)O)CCN(CC(=O)O)CCN(CC(=O)O)CC3)CC2)C(C)C)CSCc2cccc(c2)CSC[C@@H](C(N)=O)NC(=O)[C@H](CO)NC(=O)[C@H](Cc2c[nH]c3ccccc23)NC(=O)[C@H]([C@@H](C)O)NC1=O [3BP-4442] ({DOTA}-[X2]VYCE[dP]E(X39)WLTWSC-NH2; linker 4-13 via mXylylene)
IC50 [1, 5]: 0.01 to 0.0794 µM | t1/2 category (activity) [2]: A (t1/2>15.0 minutes) | Kd [2]: < 0.01 µM

CC(C)C[C@@H]1NC(=O)[C@H](Cc2c[nH]c3ccccc23)NC(=O)[C@H](CC(=O)O)NC(=O)[C@H]2CCCN2C(=O)[C@H](CCC(=O)O)NC(=O)[C@@H]2CSCc3cccc(c3)CSC[C@@H](C(N)=O)NC(=O)[C@H](CNC(=O)C[C@H](NC(=O)CN3CCC(NC(=O)CN4CCN(CC(=O)O)CCN(CC(=O)O)CCN(CC(=O)O)CC4)CC3)C(=O)N2)NC(=O)[C@H](Cc2c[nH]c3ccccc23)NC(=O)[C@H]([C@@H](C)O)NC1=O [3BP-4254] ({DOTA}-[X2]DCE[dP]DWLTW[Dap]C-NH2; lactam 2-11; linker 3-12 via mXylylene)
IC50 [1, 4]: < 0.01 µM | t1/2 category (activity) [2]: C (t1/2 between 2.1 and 5.0 minutes) | Kd [2]: < 0.01 µM

From patent US20250339569A1, “CARBONIC ANHYDRASE IX LIGANDS” (priority 2021, published 2025)
